# Source: publication PMC11571207, “Stereorandomized Oncocins with Preserved Ribosome Binding and Antibacterial Activity” (Journal of Medicinal Chemistry, 2024)
# Where two headings read alike, the source gives them in different places. No end group written: not given here.
# Legend:
# [1] = system: E. coli BW25113 sbmA::kan; conditions: Table S1, sbmA::kan mutant, 16-20 h at 37 °C; for MIC E. coli BW25113 SbmA-, 12.5% MH: 12.5% Müller-Hinton medium pH 7.4
# Experimental: (§1) Minimum inhibitory concentration assay
# (§2) Antimicrobial activity was assayed against P. aeruginosa PAO1, K. pneumoniae NCTC418, E. coli W3110, A. baumannii ATCC 19606, methicillin-resistant S. aureus COL (MRSA), and for selected peptides on P. aeruginosa PA14 and the polymyxin-B-resistant derivative PA14 2P4, as well as the clinical isolates ZEM-1A and ZEM9A, K. pneumoniae OXA-48, S. aureus Newman, Enterobacter cloacae and Burkholderia cenocepacia. The minimal inhibitory concentration (MIC) was determined by using broth microdilution method. A colo ny of bacteria was picked and grown in Luria-Bertani (LB) medium overnight at 37°C. For E. coli BW25113 sbmA::kan the medium was supplemented with 25 mg/L of kanamycin. The next day, the culture was then regrown in LB medium to log phase (OD600 = 0.6 to 0.8), which lasted approximately 4 h, and diluted to an OD600 of 0.022 in the desired medium. Stock solutions of 1 mg/mL of the samples were prepared in sterilized milliQ water and diluted to the beginning concentration of 64 μg/mL in 300 μL Mueller Hinton (MH)-medium. The diluted samples were added to first well of 96-well microtiter plate (TPP, untreated, Faust Laborbedarf, AG, Schaffhausen) and diluted serially by ½. Finally, 4 μL of the bacterial suspension was inoculated into the sample solutions (150 μL/well) with a final inoculation of about 5∙10^5 CFU/mL. The plates were then incubated at 37°C for 15-18h. For each assay, sterility (broth only) and growth control (broth with bacterial inoculum, without antibiotics) were checked with two columns in the plate. The next day, 15 μL of 3-(4,5-dimethylthiazol-2-yl)-2,5-diphenyltetrazolium bromide (MTT) was added to each well of the plate, such a way that MIC was defined as the lowest concentration of the peptide that inhibited visible growth of the tested […]
# (§3) Table S1. Activity of stereorandomized and diastereomeric oncocins against E. coli BW25113 WT and BW25113 sbmA::kan mutant in full and 12.5% MH, at pH 7.4. […]
# (§4) a) Minimum inhibitory concentration (MIC, μg/mL) was determined on E. coli BW25113 WT and […]
# [2] = system: E. coli BW25113 WT; conditions: Table S1, 16-20 h at 37 °C; for MIC E. coli BW25113 WT, 12.5% MH: 12.5% Müller-Hinton medium pH 7.4; for MIC E. coli BW25113 WT, Full MH: full Müller-Hinton medium pH 7.4
# Experimental: as §1, §2, §3, §4
# [3] = system: P. aeruginosa PA14; experiment: microbe, parasite or virus in culture; conditions: for MIC P. aeruginosa PA14, 12.5% MHB: 12.5% MHB pH 7.4; for MIC P. aeruginosa PA14, 12.5% MHB / MIC P. aeruginosa PA14, full MHB: 16–20 h at 37 °C, two different duplicate MIC determinations; for MIC P. aeruginosa PA14, full MHB: full MHB pH 7.4; for MIC P. aeruginosa PA14: supplement CSV
# Procedure, shortened: (§5)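 Minimal inhibitory concentrations come from broth microdilution in MH medium, with a top peptide concentration of 64 μg/mL halved serially.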
# [4] = system: K. pneumoniae OXA-48; experiment: microbe, parasite or virus in culture; conditions: for MIC K. pneumoniae OXA-48, 12.5% MHB / MIC K. pneumoniae OXA-48, full MHB: carbapenem-resistant, 16–20 h at 37 °C; for MIC K. pneumoniae OXA-48, 12.5% MHB: 12.5% MHB pH 7.4; for MIC K. pneumoniae OXA-48, full MHB: full MHB pH 7.4; for MIC K. pneumoniae OXA-48: supplement CSV
# Procedure, shortened: as §5
# [5] = system: P. aeruginosa ZEM9A; experiment: microbe, parasite or virus in culture; conditions: for MIC P. aeruginosa ZEM9A, 12.5% MHB / MIC P. aeruginosa ZEM9A, full MHB: clinical isolate, 16–20 h at 37 °C; for MIC P. aeruginosa ZEM9A, 12.5% MHB: 12.5% MHB pH 7.4; for MIC P. aeruginosa ZEM9A, full MHB: full MHB pH 7.4; for MIC P. aeruginosa ZEM9A: supplement CSV
# Procedure, shortened: as §5
# [6] = system: E. cloacae; experiment: microbe, parasite or virus in culture; conditions: for MIC E. cloacae, 12.5% MHB: 12.5% MHB pH 7.4; for MIC E. cloacae, 12.5% MHB / MIC E. cloacae, full MHB: 16–20 h at 37 °C; for MIC E. cloacae, full MHB: full MHB pH 7.4; for MIC E. cloacae: supplement CSV
# Procedure, shortened: as §5
# [7] = system: P. aeruginosa PA14 2P4 (pmrB); experiment: microbe, parasite or virus in culture; conditions: for MIC P. aeruginosa PA14 2P4 (pmrB), 12.5% MHB / MIC P. aeruginosa PA14 2P4 (pmrB), full MHB: polymyxin B resistant strain, 16–20 h at 37 °C; for MIC P. aeruginosa PA14 2P4 (pmrB), 12.5% MHB: 12.5% MHB pH 7.4; for MIC P. aeruginosa PA14 2P4 (pmrB), full MHB: full MHB pH 7.4; for MIC P. aeruginosa PA14 2P4: supplement CSV
# Procedure, shortened: as §5
# [8] = system: P. aeruginosa ZEM-1A; experiment: microbe, parasite or virus in culture; conditions: for MIC P. aeruginosa ZEM-1A, 12.5% MHB: 12.5% MHB pH 7.4; for MIC P. aeruginosa ZEM-1A: supplement CSV
# Procedure, shortened: as §5
# [9] = system: P. aeruginosa PA14 4.18 (pmrB); conditions: for MIC P. aeruginosa PA14 4.18 (pmrB), 12.5% MHB / MIC P. aeruginosa PA14 4.18 (pmrB), full MHB: polymyxin B resistant strain, 16–20 h at 37 °C; for MIC P. aeruginosa PA14 4.18 (pmrB), 12.5% MHB: 12.5% MHB pH 7.4; for MIC P. aeruginosa PA14 4.18 (pmrB), full MHB: full MHB pH 7.4; for MIC P. aeruginosa PA14 4.18: supplement CSV
# [10] = clinical isolate, 16–20 h at 37 °C, cells marked c: single measurement (in duplicates)
Substance,"MIC E. coli BW25113 SbmA-, 12.5% MH [1] [µg/mL]","MIC E. coli BW25113 WT, 12.5% MH [2] [µg/mL]","MIC E. coli BW25113 WT, Full MH [2] [µg/mL]","MIC P. aeruginosa PA14, 12.5% MHB [3] [µg/mL]","MIC P. aeruginosa PA14, full MHB [3] [µg/mL]",MIC P. aeruginosa PA14 ([3]; 12.5% MH pH 7.4) [µg/mL],MIC P. aeruginosa PA14 ([3]; full MH pH 7.4) [µg/mL],"MIC K. pneumoniae OXA-48, 12.5% MHB [4]","MIC K. pneumoniae OXA-48, full MHB [4]",MIC K. pneumoniae OXA-48 ([4]; 12.5% MH pH 7.4) [µg/mL],MIC K. pneumoniae OXA-48 ([4]; full MH pH 7.4) [µg/mL],"MIC P. aeruginosa ZEM9A, 12.5% MHB [5] [µg/mL]","MIC P. aeruginosa ZEM9A, full MHB [5] [µg/mL]",MIC P. aeruginosa ZEM9A ([5]; 12.5% MH pH 7.4) [µg/mL],MIC P. aeruginosa ZEM9A ([5]; full MH pH 7.4) [µg/mL],"MIC E. cloacae, 12.5% MHB [6] [µg/mL]","MIC E. cloacae, full MHB [6] [µg/mL]",MIC E. cloacae ([6]; 12.5% MH pH 7.4) [µg/mL],"MIC P. aeruginosa PA14 2P4 (pmrB), 12.5% MHB [7] [µg/mL]","MIC P. aeruginosa PA14 2P4 (pmrB), full MHB [7] [µg/mL]",other results
"VDKPPYLPRPRPPRRIYNR-NH2 [L-Onc, reference compound]",8,4,16 to 32,32,> 64,32,>64,2 µg/mL,32 µg/mL,2,32,32,> 64,32,>64,1,32,1,16,> 64,"MIC E. cloacae ([6]; full MH pH 7.4): 32 µg/mL; MIC P. aeruginosa PA14 2P4 ([7]; 12.5% MH pH 7.4): 16 µg/mL; MIC P. aeruginosa PA14 2P4 ([7]; full MH pH 7.4): >64 µg/mL; MIC P. aeruginosa ZEM-1A, 12.5% MHB [8, 10]: 8 to 16 µg/mL; MIC P. aeruginosa ZEM-1A ([8]; 12.5% MH pH 7.4): 8 to 16 µg/mL; MIC P. aeruginosa PA14 4.18 (pmrB), 12.5% MHB [9]: 32 µg/mL; MIC P. aeruginosa PA14 4.18 (pmrB), full MHB [9]: > 64 µg/mL; MIC P. aeruginosa PA14 4.18 ([9]; 12.5% MH pH 7.4): 32 µg/mL; MIC P. aeruginosa PA14 4.18 ([9]; full MH pH 7.4): >64 µg/mL"
"polymyxin B [PMB, reference compound]",1,1 to 2,2,1,< 0.5,1,<0.5,1–2/1–2 μg/mL,1–2/1–2 μg/mL,1 to 2,1 to 2,2,> 64,2,>64,1 to 2,2,1 to 2,1,4,"MIC E. coli BW25113 SbmA-, Full MH ([1]; full Müller-Hinton medium pH 7.4): 1 µg/mL; MIC P. aeruginosa PA14 2P4 ([7]; 12.5% MH pH 7.4): 1 µg/mL; MIC P. aeruginosa PA14 2P4 ([7]; full MH pH 7.4): 4 µg/mL; MIC P. aeruginosa ZEM-1A, 12.5% MHB [8, 10]: 8 µg/mL; MIC P. aeruginosa ZEM-1A, full MHB ([8]; clinical isolate, full MHB pH 7.4, 16–20 h at 37 °C, cells marked c: single measurement (in duplicates)): 16 µg/mL; MIC P. aeruginosa ZEM-1A ([8]; 12.5% MH pH 7.4): 8 µg/mL; MIC P. aeruginosa ZEM-1A ([8]; full MH pH 7.4): 16 µg/mL; MIC P. aeruginosa PA14 4.18 (pmrB), 12.5% MHB [9]: 1 µg/mL; MIC P. aeruginosa PA14 4.18 (pmrB), full MHB [9]: 2 µg/mL; MIC P. aeruginosa PA14 4.18 ([9]; 12.5% MH pH 7.4): 1 µg/mL; MIC P. aeruginosa PA14 4.18 ([9]; full MH pH 7.4): 2 µg/mL"
